Reference: patent US9587471B2, “Controlling bioavailability of nutrient additions in subsurface formations” (E I DU PONT DE NEMOURS AND COMPANY, priority 2008, dated 2017)

Columns and labels:
Assay type in all cases: cell-based
[1] = tested on: Pseudomonas stutzeri strain LH4:15 (ATCC PTA-8823); test: Anaerobic growth and survival: biocidal versus biostatic inhibition; settings: for change in Log cell number: day 0 vs day 7, anaerobic; for Final anaerobic vial OD: starting OD600 = 0.05
Method: In this invention, the anaerobic growth and survival was tested in 20 ml crimp-capped anaerobic vials, using a complete nutrient medium of the following composition: Na2HPO4.7H2O, 1.4 g/L, KH2PO4, 0.69 g/L, NH4Cl, 0.5 g/L, MgSO4.7H2O, 0.1/L g, SL-10 trace metals, 10 ml, NaCl, 7.5 g/L, NaHCO3, 7.2 g/L, sodium nitrate, 12 g/L, Na lactate, 7 g/L, yeast extract, 10 mg/L, pH 7.3-7.8.
The anaerobic growth and survival was tested as outlined above. […] Vials were inoculated using an overnight aerobic culture of Pseudomonas stutzeri strain LH4:15 (ATCC PTA-8823) in Luria Bertani medium (LB, Mediatech Inc., Herndon, Va.,) at a final OD600 of 0.05. Within 2 hours of inoculation, serial dilutions from each treatment vial were made into aerobic LB medium to determine the cell numbers at Day 0. After approximately 24 hours cell numbers were estimated by noting the highest positive dilution based on the presence or absence of turbidity in dilutions of 10^−1 to 10^−11 in the serial dilution plates. Cell numbers on Day 0 and Day 7 were measured to obtain a survival estimate during inhibitor exposure.

[2] = tested on: Pseudomonas stutzeri strain LH4:15, ATCC PTA-8823; test: Aerobic growth response (turbidity) to varying concentrations of potential microbial nutrients; settings: for concentration at which microbial growth was inhibited: aerobic growth at 30° C. On growth response (turbidity): key: − = no turbidity; + = slight turbidity; ++ = moderate to heavy turbidity.
Method: (§1) Typically cells were grown at a temperature in the range of about 25° C. to about 40° C. in an appropriate medium.
Additional potential microbial nutrients were added at various concentrations as outlined in Table 1. Growth was monitored visually with positive growth indicated by moderate to heavy turbidity.

[3] = tested on: Pseudomonas stutzeri strain LH4:15 (ATCC PTA-8823); test: Aerobic growth response (turbidity) to varying concentrations of industrial preservatives;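 further: single plus means slight turbidity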
Method: as §1
Pseudomonas stutzeri strain LH4:15 (ATCC PTA-8823) was grown as outlined in Example 1. Various preservatives commonly used in the food, cosmetic, and water treatment industries were tested for their inhibitory effect at various concentrations (Table 2). Growth was monitored visually and positive growth was indicated by moderate to heavy turbidity.

[4] = 10 g/L, 120 hours of incubation
[5] = 20 g/L, 120 hours of incubation
[6] = 50 g/L, 120 hours of incubation
[7] = 100 g/L, 24 hours of incubation
[8] = 100 g/L, 48 hours of incubation
[9] = 100 g/L, 120 hours of incubation
[10] = 200 g/L, 24 hours of incubation
[11] = 200 g/L, 48 hours of incubation
[12] = 200 g/L, 120 hours of incubation
[13] = 0.05 g/L, 24 hours of incubation
[14] = 0.05 g/L, 48 hours of incubation
[15] = 0.05 g/L, 120 hours of incubation
[16] = 0.5 g/L, 24 hours of incubation
[17] = 0.5 g/L, 48 hours of incubation
[18] = 0.5 g/L, 120 hours of incubation

SMILES: NC(N)=O [Urea]
- change in Log cell number ([1]; 20 g/L): −1
- Final anaerobic vial OD ([1]; 20 g/L): 0.2
- change in Log cell number ([1]; 30 g/L): −1
- Final anaerobic vial OD ([1]; 30 g/L): 0.13
- change in Log cell number ([1]; 50 g/L): −1
- Final anaerobic vial OD ([1]; 50 g/L): 0.03
- change in Log cell number ([1]; 100 g/L): −1
- Final anaerobic vial OD ([1]; 100 g/L): 0.02
- change in Log cell number ([1]; 200 g/L): Dead
- Final anaerobic vial OD ([1]; 200 g/L): 0.01
- change in Log cell number ([1]; 300 g/L): Dead
- Final anaerobic vial OD ([1]; 300 g/L): 0.01
- Growth response (turbidity) ([2]; 10 g/L, 24 hours of incubation): ++
- Growth response (turbidity) ([2]; 10 g/L, 48 hours of incubation): ++
- Growth response (turbidity) [2, 4]: ++
- Growth response (turbidity) ([2]; 20 g/L, 24 hours of incubation): ++
- Growth response (turbidity) ([2]; 20 g/L, 48 hours of incubation): ++
- Growth response (turbidity) [2, 5]: ++
- Growth response (turbidity) ([2]; 50 g/L, 24 hours of incubation): −
- Growth response (turbidity) ([2]; 50 g/L, 48 hours of incubation): −
- Growth response (turbidity) [2, 6]: −
- Growth response (turbidity) [2, 7]: −
- Growth response (turbidity) [2, 8]: −
- Growth response (turbidity) [2, 9]: −
- Growth response (turbidity) [2, 10]: −
- Growth response (turbidity) [2, 11]: −
- Growth response (turbidity) [2, 12]: −
- concentration at which microbial growth was inhibited [2]: ≥ 50 g/L

SMILES: CCCCCCCCCCCCN(C)C [N,N,-dimethyldodecylamine]
- growth (turbidity) ([3]; 0.0001 g/L): ++
- growth (turbidity) ([3]; 0.001 g/L): ++
- growth (turbidity) ([3]; 0.005 g/L): ++
- growth (turbidity) ([3]; 0.01 g/L): ++
- growth (turbidity) ([3]; 0.1 g/L): −
- growth (turbidity) ([3]; 0.5 g/L): −
- growth (turbidity) ([3]; 1 g/L): −

SMILES: CC(O)C(=O)[O-].[Na+] (stereo not shown) [Na lactate, sodium lactate]
- Growth response (turbidity) ([2]; 10 g/L, 24 hours of incubation): ++
- Growth response (turbidity) ([2]; 10 g/L, 48 hours of incubation): ++
- Growth response (turbidity) [2, 4]: ++
- Growth response (turbidity) ([2]; 20 g/L, 24 hours of incubation): ++
- Growth response (turbidity) ([2]; 20 g/L, 48 hours of incubation): ++
- Growth response (turbidity) [2, 5]: ++
- Growth response (turbidity) ([2]; 50 g/L, 24 hours of incubation): −
- Growth response (turbidity) ([2]; 50 g/L, 48 hours of incubation): −
- Growth response (turbidity) [2, 6]: −
- Growth response (turbidity) [2, 7]: −
- Growth response (turbidity) [2, 8]: −
- Growth response (turbidity) [2, 9]: −
- Growth response (turbidity) [2, 10]: −
- Growth response (turbidity) [2, 11]: −
- Growth response (turbidity) [2, 12]: −

SMILES: Cc1cc(O)ccc1Cl [4-chloro-3-metyhl phenol]
- growth (turbidity) ([3]; 0.1 g/L): −
- growth (turbidity) ([3]; 0.5 g/L): −
- growth (turbidity) ([3]; 1 g/L): −

SMILES: OCC(O)CO [Glycerol]
- Growth response (turbidity) ([2]; 10 g/L, 24 hours of incubation): ++
- Growth response (turbidity) ([2]; 10 g/L, 48 hours of incubation): ++
- Growth response (turbidity) [2, 4]: ++
- Growth response (turbidity) ([2]; 20 g/L, 24 hours of incubation): ++
- Growth response (turbidity) ([2]; 20 g/L, 48 hours of incubation): ++
- Growth response (turbidity) [2, 5]: ++
- Growth response (turbidity) ([2]; 50 g/L, 24 hours of incubation): ++
- Growth response (turbidity) ([2]; 50 g/L, 48 hours of incubation): ++
- Growth response (turbidity) [2, 6]: ++
- Growth response (turbidity) [2, 7]: ++
- Growth response (turbidity) [2, 8]: ++
- Growth response (turbidity) [2, 9]: ++
- Growth response (turbidity) [2, 10]: −
- Growth response (turbidity) [2, 11]: −
- Growth response (turbidity) [2, 12]: −

SMILES: OCCO [Ethylene glycol]
- Growth response (turbidity) ([2]; 10 g/L, 24 hours of incubation): ++
- Growth response (turbidity) ([2]; 10 g/L, 48 hours of incubation): ++
- Growth response (turbidity) [2, 4]: ++
- Growth response (turbidity) ([2]; 20 g/L, 24 hours of incubation): ++
- Growth response (turbidity) ([2]; 20 g/L, 48 hours of incubation): ++
- Growth response (turbidity) [2, 5]: ++
- Growth response (turbidity) ([2]; 50 g/L, 24 hours of incubation): ++
- Growth response (turbidity) ([2]; 50 g/L, 48 hours of incubation): ++
- Growth response (turbidity) [2, 6]: ++
- Growth response (turbidity) [2, 7]: +
- Growth response (turbidity) [2, 8]: ++
- Growth response (turbidity) [2, 9]: ++
- Growth response (turbidity) [2, 10]: −
- Growth response (turbidity) [2, 11]: −
- Growth response (turbidity) [2, 12]: −

SMILES: [Cl-].[Na+] [NaCl]
- change in Log cell number ([1]; 50 g/L): −1
- Final anaerobic vial OD ([1]; 50 g/L): 0.08
- change in Log cell number ([1]; 80 g/L): −3
- Final anaerobic vial OD ([1]; 80 g/L): 0.11
- change in Log cell number ([1]; 100 g/L): −1
- Final anaerobic vial OD ([1]; 100 g/L): 0.05
- change in Log cell number ([1]; 200 g/L): −2
- Final anaerobic vial OD ([1]; 200 g/L): 0.03
- change in Log cell number ([1]; 400 g/L): −4
- Final anaerobic vial OD ([1]; 400 g/L): 0.03

SMILES: O=[N+]([O-])[O-].[Na+] [NaNO3, sodium nitrate]
- change in Log cell number ([1]; 50 g/L): −1
- Final anaerobic vial OD ([1]; 50 g/L): 0.06
- change in Log cell number ([1]; 80 g/L): 0
- Final anaerobic vial OD ([1]; 80 g/L): 0.03
- change in Log cell number ([1]; 100 g/L): −2
- Final anaerobic vial OD ([1]; 100 g/L): 0.02
- change in Log cell number ([1]; 200 g/L): −6
- Final anaerobic vial OD ([1]; 200 g/L): 0.03
- change in Log cell number ([1]; 400 g/L): −5
- Final anaerobic vial OD ([1]; 400 g/L): 0.03
- Growth response (turbidity) ([2]; 10 g/L, 24 hours of incubation): ++
- Growth response (turbidity) ([2]; 10 g/L, 48 hours of incubation): ++
- Growth response (turbidity) [2, 4]: ++
- Growth response (turbidity) ([2]; 20 g/L, 24 hours of incubation): ++
- Growth response (turbidity) ([2]; 20 g/L, 48 hours of incubation): ++
- Growth response (turbidity) [2, 5]: ++
- Growth response (turbidity) ([2]; 50 g/L, 24 hours of incubation): −
- Growth response (turbidity) ([2]; 50 g/L, 48 hours of incubation): +
- Growth response (turbidity) [2, 6]: ++
- Growth response (turbidity) [2, 7]: −
- Growth response (turbidity) [2, 8]: −
- Growth response (turbidity) [2, 9]: −
- Growth response (turbidity) [2, 10]: −
- Growth response (turbidity) [2, 11]: −
- Growth response (turbidity) [2, 12]: −
- concentration at which microbial growth was inhibited [2]: ≥ 100 g/L

SMILES: CCO [Ethanol]
- Growth response (turbidity) [2, 13]: ++
- Growth response (turbidity) [2, 14]: ++
- Growth response (turbidity) [2, 15]: ++
- Growth response (turbidity) ([2]; 0.1 g/L, 24 hours of incubation): ++
- Growth response (turbidity) ([2]; 0.1 g/L, 48 hours of incubation): ++
- Growth response (turbidity) ([2]; 0.1 g/L, 120 hours of incubation): ++
- Growth response (turbidity) [2, 16]: ++
- Growth response (turbidity) [2, 17]: ++
- Growth response (turbidity) [2, 18]: ++
- Growth response (turbidity) ([2]; 1 g/L, 24 hours of incubation): ++
- Growth response (turbidity) ([2]; 1 g/L, 48 hours of incubation): ++
- Growth response (turbidity) ([2]; 1 g/L, 120 hours of incubation): ++
- Growth response (turbidity) ([2]; 10 g/L, 24 hours of incubation): ++
- Growth response (turbidity) ([2]; 10 g/L, 48 hours of incubation): ++
- Growth response (turbidity) [2, 4]: ++
- Growth response (turbidity) ([2]; 20 g/L, 24 hours of incubation): +
- Growth response (turbidity) ([2]; 20 g/L, 48 hours of incubation): ++
- Growth response (turbidity) [2, 5]: ++
- Growth response (turbidity) ([2]; 50 g/L, 24 hours of incubation): −
- Growth response (turbidity) ([2]; 50 g/L, 48 hours of incubation): −
- Growth response (turbidity) [2, 6]: −

SMILES: CCCCCCCCO [Octanol]
- change in Log cell number ([1]; 0.05 g/L): 0
- Final anaerobic vial OD ([1]; 0.05 g/L): 0.28
- change in Log cell number ([1]; 0.1 g/L): −1
- Final anaerobic vial OD ([1]; 0.1 g/L): 0.4
- change in Log cell number ([1]; 0.2 g/L): 0
- Final anaerobic vial OD ([1]; 0.2 g/L): 0.54
- change in Log cell number ([1]; 0.25 g/L): −1
- Final anaerobic vial OD ([1]; 0.25 g/L): 0.4
- change in Log cell number ([1]; 0.5 g/L): −1
- Final anaerobic vial OD ([1]; 0.5 g/L): 0.01
- effectiveness of the inhibitor in words ([1]; judged by OD600 and cell killing, Table 3): ineffective except at the highest concentrations
- Growth response (turbidity) ([2]; 0.001 g/L, 24 hours of incubation): ++
- Growth response (turbidity) ([2]; 0.001 g/L, 48 hours of incubation): ++
- Growth response (turbidity) ([2]; 0.001 g/L, 120 hours of incubation): ++
- Growth response (turbidity) ([2]; 0.005 g/L, 24 hours of incubation): ++
- Growth response (turbidity) ([2]; 0.005 g/L, 48 hours of incubation): ++
- Growth response (turbidity) ([2]; 0.005 g/L, 120 hours of incubation): ++
- Growth response (turbidity) ([2]; 0.01 g/L, 24 hours of incubation): ++
- Growth response (turbidity) ([2]; 0.01 g/L, 48 hours of incubation): ++
- Growth response (turbidity) ([2]; 0.01 g/L, 120 hours of incubation): ++
- Growth response (turbidity) [2, 13]: ++
- Growth response (turbidity) [2, 14]: ++
- Growth response (turbidity) [2, 15]: ++
- Growth response (turbidity) ([2]; 0.25 g/L, 24 hours of incubation): −
- Growth response (turbidity) ([2]; 0.25 g/L, 48 hours of incubation): −
- Growth response (turbidity) ([2]; 0.25 g/L, 120 hours of incubation): −
- Growth response (turbidity) [2, 16]: −
- Growth response (turbidity) [2, 17]: −
- Growth response (turbidity) [2, 18]: −
